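Grown in 96-well plates, cells were treated for 48 hours with each compound at five concentrations. Insufficient inhibition: endpoint recorded as highest concentration tested. TGI: concentration producing complete growth inhibition.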
Columns and labels:
Test in all cases: NCI tumour cell line growth inhibition, 48 h
[1] = tested on: SW-620 colon
[2] = tested on: SNB-75 CNS
[3] = tested on: SF-295 CNS
[4] = tested on: HT29 colon
[5] = tested on: MCF7 breast
[6] = tested on: HCT-116 colon
[7] = tested on: M14 melanoma
[8] = tested on: HOP-62 NSCLC
[9] = tested on: A498 renal
[10] = tested on: PC-3 prostate
[11] = tested on: MDA-MB-231 breast
[12] = tested on: IGROV1 ovarian
[13] = tested on: T-47D breast
[14] = tested on: ACHN renal
[15] = tested on: HOP-92 NSCLC
[16] = tested on: K-562 leukemia
[17] = tested on: SK-MEL-5 melanoma
[18] = tested on: COLO 205 colon
[19] = tested on: MALME-3M melanoma
[20] = tested on: U251 CNS
[21] = tested on: UO-31 renal
[22] = tested on: UACC-62 melanoma
[23] = tested on: SF-539 CNS
[24] = tested on: SN12C renal
[25] = tested on: SNB-19 CNS
[26] = tested on: CCRF-CEM leukemia
[27] = tested on: HCT-15 colon
[28] = tested on: EKVX NSCLC
[29] = tested on: UACC-257 melanoma
[30] = tested on: OVCAR-5 ovarian
[31] = tested on: NCI-H460 lung
[32] = tested on: HL-60(TB) leukemia
[33] = tested on: SK-OV-3 ovarian
[34] = tested on: SK-MEL-28 melanoma
[35] = tested on: KM12 colon
[36] = tested on: A549 NSCLC
[37] = tested on: NCI/ADR-RES ovarian
[38] = tested on: MOLT-4 leukemia
[39] = tested on: SK-MEL-2 melanoma
[40] = tested on: HCC-2998 colon
[41] = tested on: SF-268 CNS
[42] = tested on: OVCAR-4 ovarian
[43] = tested on: NCI-H226 lung
[44] = tested on: OVCAR-8 ovarian
[45] = tested on: LOX IMVI melanoma
[46] = tested on: NCI-H522 lung
[47] = tested on: OVCAR-3 ovarian
[48] = tested on: RPMI-8226 leukemia
[49] = tested on: NCI-H23 lung
[50] = tested on: 786-0 renal
[51] = tested on: CAKI-1 renal
[52] = tested on: BT-549 breast
[53] = tested on: TK-10 renal
[54] = tested on: DU-145 prostate
[55] = tested on: MDA-MB-435
[56] = tested on: RXF 393 renal
[57] = tested on: MDA-N
[58] = tested on: SR leukemia

COc1ccn(CC(=O)c2cc3ccccc3[nH]2)c(=O)n1
TGI [1]: > 100 µM | TGI [2]: > 100 µM | TGI [3]: > 100 µM | TGI [4]: > 100 µM | TGI [5]: > 100 µM | TGI [6]: > 100 µM | TGI [7]: > 100 µM | TGI [8]: > 100 µM | TGI [9]: > 100 µM | TGI [10]: > 100 µM | TGI [11]: > 100 µM | TGI [12]: > 100 µM | TGI [13]: > 100 µM | TGI [14]: > 100 µM | TGI [15]: > 100 µM | TGI [16]: > 100 µM | TGI [17]: > 100 µM | TGI [18]: > 100 µM | TGI [19]: > 100 µM | TGI [20]: > 100 µM | TGI [21]: > 100 µM | TGI [22]: > 100 µM | TGI [23]: > 100 µM | TGI [24]: > 100 µM | TGI [25]: > 100 µM | TGI [26]: > 100 µM | TGI [27]: > 100 µM | TGI [28]: > 100 µM | TGI [29]: > 100 µM | TGI [30]: > 100 µM | TGI [31]: > 100 µM | TGI [32]: > 100 µM | TGI [33]: > 100 µM | TGI [34]: > 100 µM | TGI [35]: > 100 µM | TGI [36]: > 100 µM | TGI [37]: > 100 µM | TGI [38]: > 100 µM | TGI [39]: > 100 µM | TGI [40]: > 100 µM | TGI [41]: > 100 µM | TGI [42]: > 100 µM | TGI [43]: > 100 µM | TGI [44]: > 100 µM | TGI [45]: > 100 µM | TGI [46]: > 100 µM | TGI [47]: > 100 µM | TGI [48]: > 100 µM | TGI [49]: > 100 µM | TGI [50]: > 100 µM | TGI [51]: > 100 µM | TGI [52]: > 100 µM | TGI [53]: > 100 µM | TGI [54]: > 100 µM | TGI [55]: > 100 µM | TGI [56]: > 100 µM | TGI [57]: > 100 µM

Cc1cc(S(=O)(=O)NC2=NCC(C)NN2)c(S)cc1Cl (stereo unspecified)
TGI [1]: > 100 µM | TGI [2]: > 100 µM | TGI [3]: > 100 µM | TGI [4]: > 100 µM | TGI [5]: > 100 µM | TGI [6]: > 100 µM | TGI [7]: > 100 µM | TGI [8]: > 100 µM | TGI [9]: 69.8 µM | TGI [10]: > 100 µM | TGI [11]: > 100 µM | TGI [12]: 53.3 µM | TGI [13]: > 100 µM | TGI [14]: > 100 µM | TGI [16]: 80.9 µM | TGI [17]: > 100 µM | TGI [18]: > 100 µM | TGI [19]: 69.2 µM | TGI [20]: > 100 µM | TGI [21]: > 100 µM | TGI [22]: > 100 µM | TGI [23]: > 100 µM | TGI [24]: > 100 µM | TGI [25]: > 100 µM | TGI [26]: > 100 µM | TGI [27]: > 100 µM | TGI [28]: > 100 µM | TGI [29]: > 100 µM | TGI [30]: > 100 µM | TGI [31]: > 100 µM | TGI [32]: > 100 µM | TGI [33]: > 100 µM | TGI [34]: > 100 µM | TGI [35]: > 100 µM | TGI [36]: > 100 µM | TGI [37]: > 100 µM | TGI [38]: > 100 µM | TGI [39]: 84.3 µM | TGI [40]: > 100 µM | TGI [41]: 73 µM | TGI [42]: > 100 µM | TGI [43]: > 100 µM | TGI [44]: > 100 µM | TGI [45]: 37.7 µM | TGI [46]: 47 µM | TGI [47]: > 100 µM | TGI [48]: 61.8 µM | TGI [49]: > 100 µM | TGI [50]: > 100 µM | TGI [51]: > 100 µM | TGI [52]: > 100 µM | TGI [53]: > 100 µM | TGI [54]: > 100 µM | TGI [55]: > 100 µM | TGI [56]: > 100 µM | TGI [58]: 90.4 µM | TGI [57]: > 100 µM

NC(Cc1ccc(O)c(O)c1)P(=O)(O)O (stereo unspecified)
TGI [1]: 43.2 µM | TGI [2]: > 100 µM | TGI [3]: > 100 µM | TGI [4]: > 100 µM | TGI [6]: > 100 µM | TGI [7]: > 100 µM | TGI [9]: > 100 µM | TGI [10]: > 100 µM | TGI [11]: > 100 µM | TGI [12]: > 100 µM | TGI [13]: 95.7 µM | TGI [14]: > 100 µM | TGI [15]: > 100 µM | TGI [16]: 42 µM | TGI [17]: > 100 µM | TGI [19]: > 100 µM | TGI [20]: > 100 µM | TGI [21]: > 100 µM | TGI [22]: > 100 µM | TGI [23]: > 100 µM | TGI [24]: > 100 µM | TGI [25]: > 100 µM | TGI [26]: 68.6 µM | TGI [27]: > 100 µM | TGI [29]: > 100 µM | TGI [30]: > 100 µM | TGI [31]: > 100 µM | TGI [32]: 45.7 µM | TGI [34]: > 100 µM | TGI [35]: > 100 µM | TGI [36]: > 100 µM | TGI [37]: > 100 µM | TGI [38]: > 100 µM | TGI [39]: > 100 µM | TGI [40]: > 100 µM | TGI [41]: > 100 µM | TGI [42]: > 100 µM | TGI [43]: > 100 µM | TGI [44]: > 100 µM | TGI [46]: 20.1 µM | TGI [47]: > 100 µM | TGI [48]: > 100 µM | TGI [49]: > 100 µM | TGI [50]: > 100 µM | TGI [51]: > 100 µM | TGI [52]: > 100 µM | TGI [53]: > 100 µM | TGI [54]: > 100 µM | TGI [55]: > 100 µM | TGI [56]: > 100 µM | TGI [58]: > 100 µM | TGI [57]: > 100 µM
